Measured values as given in patent US9987276B2 (Celgene CAR LLC, priority 2008, dated 2018).
Like-named read-outs stand apart in the source and are kept apart here.

How the values were obtained:
BTK = BTK (Homo sapiens (Human), UniProt Q06187); test: Omnia assay for potency assessment against BTK; assay type: biochemical; conditions: [BTK]=5 nM, Omnia assay; read-out: BTK Inhibition (IC50)
Experimental: The modified BTK-optimized reagent conditions for the above protocol are:
[BTK]=5 nM, [ATP]=[…], [Y5-Sox]=[…] (ATP KMapp˜[…]).

EGFR-WT = EGFR-WT (Homo sapiens (Human), UniProt P00533); test: Omnia assay for potency assessment against EGFR (WT)
[1] = read-out: EGFR (wild type inhibition), EGFR wild type

Chain of BTK (Q06187 whole entry): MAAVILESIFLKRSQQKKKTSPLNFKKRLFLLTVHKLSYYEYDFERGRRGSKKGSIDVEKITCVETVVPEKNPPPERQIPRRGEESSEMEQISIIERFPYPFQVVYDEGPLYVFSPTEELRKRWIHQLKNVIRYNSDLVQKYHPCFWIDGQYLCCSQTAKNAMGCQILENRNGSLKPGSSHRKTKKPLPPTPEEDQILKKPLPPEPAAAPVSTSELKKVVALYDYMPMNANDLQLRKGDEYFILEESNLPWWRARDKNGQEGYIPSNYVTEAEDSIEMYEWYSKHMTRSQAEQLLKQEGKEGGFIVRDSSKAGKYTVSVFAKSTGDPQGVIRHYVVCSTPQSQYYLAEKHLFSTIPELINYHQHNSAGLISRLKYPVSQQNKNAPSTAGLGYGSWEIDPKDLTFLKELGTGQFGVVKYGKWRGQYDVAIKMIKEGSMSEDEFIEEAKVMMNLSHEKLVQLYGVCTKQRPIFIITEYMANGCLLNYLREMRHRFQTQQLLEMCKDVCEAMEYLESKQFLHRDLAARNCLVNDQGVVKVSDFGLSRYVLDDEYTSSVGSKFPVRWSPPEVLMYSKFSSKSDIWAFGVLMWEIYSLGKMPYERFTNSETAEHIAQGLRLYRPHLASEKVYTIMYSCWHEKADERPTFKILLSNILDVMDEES

Compound | IC50 (BTK) [µM] | IC50 (EGFR-WT) [µM] | IC50 (EGFR-WT; [1]) [µM]
C=CC(=O)Nc1cccc(Nc2nc(Nc3ccc(OC(C)(C)CO)c(F)c3)ncc2F)c1 [Compound I-332, N-(3-(5-fluoro-2-(3-fluoro-4-(1-hydroxy-2-methylpropan-2-yloxy)phenylamino)pyrimidin-4-ylamino)phenyl)acrylamide] | < 0.01 | 0.01 to 0.1 | –
C=CC(=O)Nc1cccc(Nc2nc(NCc3ccc(OC)cc3)ncc2F)c1 [Compound I-241, N-(3-(5-fluoro-2-(4-methoxybenzylamino)pyrimidin-4-ylamino)phenyl)acrylamide] | 1 to 10 | – | 1 to 10
C=CC(=O)N1CCC[C@@H](Sc2nc(Nc3cccc(OC)c3)ncc2F)C1 [Compound I-137, (R)-1-(3-(5-fluoro-2-(3-methoxyphenylamino)pyrimidin-4-ylthio)piperidin-1-yl)prop-2-en-1-one] | 0.1 to 1 | – | > 10
(E)-4-(dimethylamino)-N-(3-(5-methyl-4-(m-tolylamino)pyrimidin-2-ylamino)phenyl)but-2-enamide [Compound I-360] | < 0.01 | – | < 0.01
COc1cccc(Nc2ncc(C(F)(F)F)c(N[C@@H]3CCC[C@H](C(=O)C=C(C)C)C3)n2)c1 (stereo in doubt) [Compound I-213, 1-(3-(2-(3-Methoxy-phenylamino)-5-trifluoromethyl-pyrimidin-4-ylamino)-cyclohexyl)-3-methyl-but-2-en-1-one] | > 10 | 0.1 to 1 | –
C=CC(=O)N1CCC(Nc2nc(Nc3ccc(OC)nc3)ncc2F)C1 (stereo not shown) [Compound I-203, 1-(3-(5-fluoro-2-(6-methoxypyridin-3-ylamino)pyrimidin-4-ylamino)pyrrolidin-1-yl)prop-2-en-1-one] | 0.01 to 0.1 | 0.1 to 1 | –
C=CC(=O)N1CCOc2ccc(Nc3nc(Nc4ccc(OCCOC)cc4)ncc3F)cc21 [Compound I-141, 1-(6-(5-fluoro-2-(4-(2-methoxyethoxy)phenylamino)pyrimidin-4-ylamino)-2H-benzo[b][1,4]oxazin-4(3H)-yl)prop-2-en-1-one] | < 0.01 | 0.01 to 0.1 | –
C=CC(=O)Nc1cccc(Nc2nc(Nc3ccc4c(c3)CC(=O)N4)ncc2F)c1 [Compound I-181, N-(3-(5-fluoro-2-(2-oxoindolin-5-ylamino)pyrimidin-4-ylamino)phenyl)acrylamide] | < 0.01 | – | < 0.01
C=CC(=O)Nc1cccc(Nc2nc(Nc3cccc(OCCCN4CCCC4=O)c3)ncc2F)c1 [Compound I-144, 4-(3-acrylamidophenylamino)-5-fluoro-2-(3-(3-(2-oxopyrrolidin-1-yl)propoxy)phenylamino)-pyrimidine] | < 0.01 | – | < 0.01
C=CC(=O)N1CCC[C@H](Nc2nc(Nc3cccc(OC)c3)ncc2F)C1 [Compound I-196, (S)-1-(3-(5-fluoro-2-(3-methoxyphenylamino)pyrimidin-4-ylamino)piperidin-1-yl)prop-2-en-1-one] | 0.01 to 0.1 | – | 1 to 10
C=CC(=O)Nc1cccc(Nc2nc(Nc3ccc4c(c3)OCCO4)ncc2F)c1 [Compound I-349] | < 0.01 | 0.01 to 0.1 | –
C=CC(=O)Nc1cccc(Nc2nc(NC3CCCN(C(C)=O)C3)ncc2F)c1 (stereo not shown) [Compound I-238, N-(3-(2-(1-acetylpiperidin-3-ylamino)-5-fluoropyrimidin-4-ylamino)phenyl)acrylamide] | 1 to 10 | – | > 10
N-(3-(5-fluoro-2(3,4,5-trimethoxyphenylamino)pyrimidin-4-yloxy)phenyl)acrylamide [Compound I-148] | 1 to 10 | – | 1 to 10
C=CC(=O)N1Cc2ccc(Nc3nc(Nc4cccc(OC)c4)ncc3C(F)(F)F)cc2C1 [Compound I-132, 1-(5-(5-trifluoromethyl-2-(3-methoxyphenylamino)pyrimidin-4-yl)amino-1,3-dihydroisoindol-2-yl)2-propen-1-one] | < 0.01 | 0.01 to 0.1 | –
C=CC(=O)Nc1cccc(Nc2nc(Nc3ccc(Cl)c(OC)c3)ncc2F)c1 [Compound I-74, N-(3-(5-fluoro-2-(4-chloro-3-methoxyphenylamino)pyrimidin-4-ylamino)phenyl)acrylamide] | < 0.01 | 0.1 to 1 | –
C=CC(=O)N1CCC[C@@H](Nc2nc(Nc3ccc(O[C@H]4CCOC4)cc3)ncc2F)C1 [Compound I-347, 1-((R)-3-(5-fluoro-2-(4-((S)-tetrahydrofuran-3-yloxy)phenylamino)pyrimidin-4-ylamino)piperidin-1-yl)prop-2-en-1-one] | < 0.01 | 0.01 to 0.1 | –
C=CC(=O)Nc1ccc(Nc2nc(Nc3cccc(OC)c3)ncc2C(F)(F)F)cc1 [Compound I-236, N-(4-(5-trifluoromethyl-2-(3-methoxyphenylamino)pyrimidin-4-ylamino)phenyl)acrylamide] | 0.01 to 0.1 | – | 1 to 10
C=CC(=O)Nc1cccc(Nc2nc(Nc3ccc(OC(C)(C)CO)cc3)ncc2F)c1 [Compound I-93, N-(3-(5-fluoro-2-(4-(1-hydroxy-2-methylpropan-2-yloxy)phenylamino)pyrimidin-4-ylamino)phenyl)acrylamide] | < 0.01 | 0.01 to 0.1 | –

Compound | IC50 (BTK) [µM] | IC50 (EGFR-WT) [µM] | IC50 (EGFR-WT; [1]) [µM]
C=CC(=O)Nc1cccc(Nc2nc(Nc3ccc(OCCN4CCCC4=O)cc3)ncc2F)c1 [Compound I-92, N-(3-(5-fluoro-2-(4-(2-(2-oxopyrrolidin-1-yl)ethoxy)phenylamino)pyrimidin-4-ylamino)phenyl)acrylamide] | < 0.01 | 0.01 to 0.1 | –
Cc1cccc(Nc2nc(Nc3cccc(NC(=O)/C=C/CN4C[C@@H]5C[C@H]4CN5)c3)ncc2F)c1 [Compound I-101, (E)-4-((1S,4S)-2,5-diazabicyclo[2.2.1]heptan-2-yl)-N-(3-(5-fluoro-4-(m-tolylamino)pyrimidin-2-ylamino)phenyl)but-2-enamide] | 0.01 to 0.1 | 0.01 to 0.1 | –
CC(C)=CC(=O)c1cccc(Nc2nc(Nc3cccc(S(N)(=O)=O)c3)ncc2C)c1 [Compound I-224, 1-(3-(5-methyl-2-(3-aminosulfonylphenylamino)pyrimidin-4-ylamino)phenyl)-3-methylbut-2-en-1-one] | 0.01 to 0.1 | 0.1 to 1 | –
C=CC(=O)Nc1cccc(Nc2nc(Nc3ccc(OCCOC)c(F)c3)ncc2C#N)c1 [Compound I-350, N-(3-(5-cyano-2-(3-fluoro-4-(2-methoxyethoxy)phenylamino)pyrimidin-4-ylamino)phenyl)acrylamide] | < 0.01 | – | < 0.01
C=CC(=O)Nc1cccc(Nc2nc(Nc3cccnc3)ncc2F)c1 [Compound I-234, N-(3-(5-fluoro-2-(pyridin-3-ylamino)pyrimidin-4-ylamino)phenyl)acrylamide] | 1 to 10 | – | > 10
C=CC(=O)Nc1cccc(N(C(=O)C=C)c2nc(Nc3ccc(OC)nc3)ncc2C#N)c1 [Compound I-171, N-(3-acrylamidophenyl)-N-(5-cyano-2-(6-methoxypyridin-3-ylamino)pyrimidin-4-yl)acrylamide] | < 0.01 | 0.01 to 0.1 | –
CC(C)=CC(=O)c1cccc(Nc2nc(Nc3cccc(OC(F)(F)F)c3)ncc2F)c1 [Compound I-223, 1-(3-(5-fluoro-2-(3-(trifluoromethoxy)phenylamino)pyrimidin-4-ylamino)phenyl)-3-methylbut-2-en-1-one] | > 10 | – | 1 to 10
CC(C)=CC(=O)c1cccc(Nc2nc(Nc3ccccc3)ncc2C)c1 [Compound I-232, 3-methyl-1-(3-(5-methyl-2-(phenylamino)pyrimidin-4-ylamino)phenyl)but-2-en-1-one] | 0.01 to 0.1 | – | 1 to 10
C=CC(=O)Nc1cccc(Nc2nc(Nc3cccc(OCC(O)CO)c3)ncc2F)c1 (stereo not shown) [Compound I-339, N-(3-(2-(3-(2,3-dihydroxypropoxy)phenylamino)-5-fluoropyrimidin-4-ylamino)phenyl)acrylamide] | < 0.01 | – | < 0.01
C=CC(=O)N1CCC[C@@H](Nc2nc(Nc3ccc(OCCOC)cc3)ncc2F)C1 [Compound I-345] | < 0.01 | 0.1 to 1 | –
COCCN(C)C/C=C/C(=O)Nc1cccc(Nc2ncc(F)c(Nc3cccc(C)c3)n2)c1 [Compound I-120, (E)-N-(3-(5-fluoro-4-(m-tolylamino)pyrimidin-2-ylamino)phenyl)-4-((2-methoxyethyl)(methyl)amino)but-2-enamide] | < 0.01 | – | < 0.01
C#CCOc1cccc(Nc2ncc(F)c(Nc3cccc(C(=O)C=C(C)C)c3)n2)c1 [Compound I-211, 1-(3-(5-fluoro-2-(3-(prop-2-ynyloxy)phenylamino)pyrimidin-4-ylamino)phenyl)-3-methylbut-2-en-1-one] | 1 to 10 | – | 1 to 10
C=CC(=O)Nc1cccc(Nc2nc(Nc3ccc(OCC(O)CO)cc3)ncc2F)c1 (stereo not shown) [Compound I-335, N-(3-(2-(4-(2,3-dihydroxypropoxy)phenylamino)-5-fluoropyrimidin-4-ylamino)phenyl)acrylamide] | < 0.01 | – | < 0.01
Cc1cccc(Nc2nc(Nc3cccc(NC(=O)/C=C/CN4CC[C@H](O)C4)c3)ncc2F)c1 [Compound I-99, (S,E)-N-(3-(5-fluoro-4-(m-tolylamino)pyrimidin-2-ylamino)phenyl)-4-(3-hydroxypyrrolidin-1-yl)but-2-enamide] | < 0.01 | – | < 0.01
C/C=C/C(=O)OCc1cccc(Nc2nc(Nc3ccccc3)ncc2C)c1 [Compound I-246, (E)-3-(5-methyl-2-(phenylamino)pyrimidin-4-ylamino) benzyl but-2-enoate] | 0.01 to 0.1 | – | 1 to 10
C=CC(=O)N(C)Cc1ccc(Oc2nc(Nc3ccc(OC)nc3)ncc2F)cc1 [Compound I-117, N-(4-(5-fluoro-2-(6-methoxypyridin-3-ylamino)pyrimidin-4-yloxy)benzyl)-N-methylacrylamide] | < 0.01 | – | 1 to 10
C=CC(=O)N1CCCC(Oc2nc(Nc3ccc(OC)nc3)ncc2F)C1 (stereo not shown) [Compound I-191] | < 0.01 | – | 1 to 10
